Measured values: ChEMBL document CHEMBL2440076, “New triarylpyrazoles as broad-spectrum anticancer agents: design, synthesis, and biological evaluation” (Eur J Med Chem, 2013)

How the values were obtained:
Assay type in all cases: functional
SF-268 = test: Growth inhibition of human SF268 cells assessed as cell growth at 5X10'-9 M after 48 hrs by sulforhodamine B assay; conditions: SF-268, 48 h, read-out: Activity
KM12 [1] = test: Growth inhibition of human KM12 cells assessed as cell growth at 5X10'-5 M after 48 hrs by sulforhodamine B assay; conditions: KM12, 48 h, read-out: Activity
HCT-116 = test: Growth inhibition of human HCT116 cells assessed as cell growth at 5X10'-5 M after 48 hrs by sulforhodamine B assay; conditions: HCT-116, 48 h, read-out: Activity
NCI-H23 = test: Growth inhibition of human NCI-H23 cells assessed as cell growth at 5X10'-5 M after 48 hrs by sulforhodamine B assay; conditions: NCI-H23, 48 h, read-out: Activity
MDA-MB-468 = test: Growth inhibition of human MDA-MB-468 cells assessed as cell growth at 5X10'-6 M after 48 hrs by sulforhodamine B assay; conditions: MDA-MB-468, 48 h, read-out: Activity
PC-3 = test: Growth inhibition of human PC3 cells assessed as cell growth at 5X10'-6 M after 48 hrs by sulforhodamine B assay; conditions: PC-3, 48 h, read-out: Activity
ACHN [2] = test: Growth inhibition of human ACHN cells assessed as cell growth at 5X10'-6 M after 48 hrs by sulforhodamine B assay; conditions: read-out: Activity
MDA-MB-435 = test: Growth inhibition of human MDA-MB-435 cells assessed as cell growth at 5X10'-6 M after 48 hrs by sulforhodamine B assay; conditions: MDA-MB-435, 48 h, read-out: Activity
NCI-H322M [3] = test: Growth inhibition of human NCI-H322M cells assessed as cell growth at 5X10'-9 M after 48 hrs by sulforhodamine B assay; conditions: read-out: Activity
NCI-H522 = test: Growth inhibition of human NCI-H522 cells assessed as cell growth at 5X10'-6 M after 48 hrs by sulforhodamine B assay; conditions: NCI-H522, 48 h, read-out: Activity
HOP-92 = test: Growth inhibition of human HOP92 cells assessed as cell growth at 5X10'-6 M after 48 hrs by sulforhodamine B assay; conditions: HOP-92, 48 h, read-out: Activity
RXF 393 = test: Growth inhibition of human RXF393 cells assessed as cell growth at 5X10'-7 M after 48 hrs by sulforhodamine B assay; conditions: RXF 393, 48 h, read-out: Activity
A498 [4] = test: Growth inhibition of human A498 cells assessed as cell growth at 5X10'-7 M after 48 hrs by sulforhodamine B assay; conditions: A498, 48 h, read-out: Activity
M14 = test: Growth inhibition of human M14 cells assessed as cell growth at 5X10'-7 M after 48 hrs by sulforhodamine B assay; conditions: M14, 48 h, read-out: Activity
Malme-3M = test: Growth inhibition of human MALME-3M cells assessed as cell growth at 5X10'-7 M after 48 hrs by sulforhodamine B assay; conditions: read-out: Activity
HT-29 = test: Growth inhibition of human HT-29 cells assessed as cell growth at 5X10'-7 M after 48 hrs by sulforhodamine B assay; conditions: HT-29, 48 h, read-out: Activity
NCI-H460 = test: Growth inhibition of human NCI-H460 cells assessed as cell growth at 5X10'-7 M after 48 hrs by sulforhodamine B assay; conditions: NCI-H460, 48 h, read-out: Activity
NCI-H322M [5] = test: Growth inhibition of human NCI-H322M cells assessed as cell growth at 5X10'-7 M after 48 hrs by sulforhodamine B assay; conditions: read-out: Activity
SR = test: Growth inhibition of human SR cells assessed as cell growth at 5X10'-7 M after 48 hrs by sulforhodamine B assay; conditions: read-out: Activity
CCRF-CEM = test: Growth inhibition of human CCRF-CEM cells assessed as cell growth at 5X10'-7 M after 48 hrs by sulforhodamine B assay; conditions: read-out: Activity
MDA-MB-231 [6] = test: Growth inhibition of human MDA-MB-231 cells assessed as cell growth at 5X10'-8 M after 48 hrs by sulforhodamine B assay; conditions: MDA-MB-231, 48 h, read-out: Activity
OVCAR-4 = test: Growth inhibition of human OVCAR4 cells assessed as cell growth at 5X10'-8 M after 48 hrs by sulforhodamine B assay; conditions: OVCAR-4, 48 h, read-out: Activity
KM12 [7] = test: Growth inhibition of human KM12 cells assessed as cell growth at 5X10'-8 M after 48 hrs by sulforhodamine B assay; conditions: KM12, 48 h, read-out: Activity
T47D = test: Growth inhibition of human T47D cells assessed as cell growth at 5X10'-5 M after 48 hrs by sulforhodamine B assay; conditions: read-out: Activity
MDA-MB-231 [8] = test: Growth inhibition of human MDA-MB-231 cells assessed as cell growth at 5X10'-5 M after 48 hrs by sulforhodamine B assay; conditions: MDA-MB-231, 48 h, read-out: Activity
DU-145 = test: Growth inhibition of human DU145 cells assessed as cell growth at 5X10'-5 M after 48 hrs by sulforhodamine B assay; conditions: DU-145, 48 h, read-out: Activity
CAKI-1 [9] = test: Growth inhibition of human CAKI-1 cells assessed as cell growth at 5X10'-5 M after 48 hrs by sulforhodamine B assay; conditions: CAKI-1, 48 h, read-out: Activity
ACHN [10] = test: Growth inhibition of human ACHN cells assessed as cell growth at 5X10'-5 M after 48 hrs by sulforhodamine B assay; conditions: read-out: Activity
A498 [11] = test: Growth inhibition of human A498 cells assessed as cell growth at 5X10'-5 M after 48 hrs by sulforhodamine B assay; conditions: A498, 48 h, read-out: Activity
786-0 = test: Growth inhibition of human 786-0 cells assessed as cell growth at 5X10'-5 M after 48 hrs by sulforhodamine B assay; conditions: 786-0, 48 h, read-out: Activity
SK-MEL-5 = test: Growth inhibition of human SK-MEL-5 cells assessed as cell growth at 5X10'-5 M after 48 hrs by sulforhodamine B assay; conditions: SK-MEL-5, 48 h, read-out: Activity
MDA-MB-231 [12] = test: Growth inhibition of human MDA-MB-231 cells assessed as cell growth at 5X10'-9 M after 48 hrs by sulforhodamine B assay; conditions: MDA-MB-231, 48 h, read-out: Activity
UO-31 = test: Growth inhibition of human UO31 cells assessed as cell growth at 5X10'-9 M after 48 hrs by sulforhodamine B assay; conditions: UO-31, 48 h, read-out: Activity
CAKI-1 [13] = test: Growth inhibition of human CAKI-1 cells assessed as cell growth at 5X10'-9 M after 48 hrs by sulforhodamine B assay; conditions: CAKI-1, 48 h, read-out: Activity
UACC-62 = test: Growth inhibition of human UACC62 cells assessed as cell growth at 5X10'-9 M after 48 hrs by sulforhodamine B assay; conditions: UACC-62, 48 h, read-out: Activity
SNB-75 = test: Growth inhibition of human SNB75 cells assessed as cell growth at 5X10'-9 M after 48 hrs by sulforhodamine B assay; conditions: SNB-75, 48 h, read-out: Activity
SF-295 = test: Growth inhibition of human SF295 cells assessed as cell growth at 5X10'-9 M after 48 hrs by sulforhodamine B assay; conditions: SF-295, 48 h, read-out: Activity

SMILES	growth at 0.005 µM (SF-268) [%]	growth at 50 µM (KM12 [1]) [%]	growth at 50 µM (HCT-116) [%]	growth at 50 µM (NCI-H23) [%]	growth at 5 µM (MDA-MB-468) [%]	growth at 5 µM (PC-3) [%]	growth at 5 µM (ACHN [2]) [%]	growth at 5 µM (MDA-MB-435) [%]	growth at 0.005 µM (NCI-H322M [3]) [%]	growth at 5 µM (NCI-H522) [%]	growth at 5 µM (HOP-92) [%]	growth at 0.5 µM (RXF 393) [%]	growth at 0.5 µM (A498 [4]) [%]	growth at 0.5 µM (M14) [%]	growth at 0.5 µM (Malme-3M) [%]	growth at 0.5 µM (HT-29) [%]	growth at 0.5 µM (NCI-H460) [%]	growth at 0.5 µM (NCI-H322M [5]) [%]	growth at 0.5 µM (SR) [%]	growth at 0.5 µM (CCRF-CEM) [%]	also measured
COc1cc(-c2nn(-c3cccc(NC(=O)c4cccc(C(F)(F)F)c4)c3)cc2-c2ccncc2)ccc1Cl	94	7	9	-3	-4	17	27	-56	91	-10	-14	68	61	91	89	86	90	87	65	88	growth at 0.05 µM (MDA-MB-231 [6]): 97%; growth at 0.05 µM (OVCAR-4): 98%; growth at 0.05 µM (KM12 [7]): 95%; growth at 50 µM (T47D): 21%; growth at 50 µM (MDA-MB-231 [8]): -21%; growth at 50 µM (DU-145): -4%; growth at 50 µM (CAKI-1 [9]): 17%; growth at 50 µM (ACHN [10]): 14%; growth at 50 µM (A498 [11]): -28%; growth at 50 µM (786-0): 3%; growth at 50 µM (SK-MEL-5): -51%; growth at 0.005 µM (MDA-MB-231 [12]): 102%; growth at 0.005 µM (UO-31): 82%; growth at 0.005 µM (CAKI-1 [13]): 94%; growth at 0.005 µM (UACC-62): 97%; growth at 0.005 µM (SNB-75): 90%; growth at 0.005 µM (SF-295): 94%
O=C(Nc1cccc(-n2cc(-c3ccncc3)c(-c3ccc(Cl)c(O)c3)n2)c1)Nc1cc(C(F)(F)F)cc(C(F)(F)F)c1	98	-85	-96	-75	-14	-3	2	-31	108	-28	-38	82	64	59	77	72	45	84	72	62	growth at 0.05 µM (MDA-MB-231 [6]): 92%; growth at 0.05 µM (OVCAR-4): 95%; growth at 0.05 µM (KM12 [7]): 103%; growth at 50 µM (T47D): -25%; growth at 50 µM (MDA-MB-231 [8]): -72%; growth at 50 µM (DU-145): -97%; growth at 50 µM (CAKI-1 [9]): -67%; growth at 50 µM (ACHN [10]): -95%; growth at 50 µM (A498 [11]): -95%; growth at 50 µM (786-0): -71%; growth at 50 µM (SK-MEL-5): -94%; growth at 0.005 µM (MDA-MB-231 [12]): 94%; growth at 0.005 µM (UO-31): 97%; growth at 0.005 µM (CAKI-1 [13]): 97%; growth at 0.005 µM (UACC-62): 95%; growth at 0.005 µM (SNB-75): 88%; growth at 0.005 µM (SF-295): 92%
O=C(Nc1cccc(-n2cc(-c3ccncc3)c(-c3ccc(Cl)c(O)c3)n2)c1)c1ccc(N2CCOCC2)c(C(F)(F)F)c1	90	1	10	-13	63	29	25	28	100	29	-7	57	89	84	89	102	98	114	84	81	growth at 0.05 µM (MDA-MB-231 [6]): 93%; growth at 0.05 µM (OVCAR-4): 100%; growth at 0.05 µM (KM12 [7]): 93%; growth at 50 µM (T47D): 44%; growth at 50 µM (MDA-MB-231 [8]): -8%; growth at 50 µM (DU-145): 26%; growth at 50 µM (CAKI-1 [9]): -15%; growth at 50 µM (ACHN [10]): 8%; growth at 50 µM (A498 [11]): 6%; growth at 50 µM (786-0): -53%; growth at 50 µM (SK-MEL-5): -70%; growth at 0.005 µM (MDA-MB-231 [12]): 96%; growth at 0.005 µM (UO-31): 88%; growth at 0.005 µM (CAKI-1 [13]): 93%; growth at 0.005 µM (UACC-62): 98%; growth at 0.005 µM (SNB-75): 94%; growth at 0.005 µM (SF-295): 93%
